These results are taken from US20080234262A1 (Wyeth, priority 2007, published 2008).

The assay concerns the target PI3K (Homo sapiens, UniProt P42336). Kind of assay: Fluorescence polarization assay for PI3K.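 Note: PI3K kinase reaction on PIP2 with ATP, 30-60 min, product sensed by GST-GRP with red probe in fluorescence polarization (mP), controls without enzyme and at zero time.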 It is filed as biochemical. To be noted: PI3Kα; read-out: PI3Kα IC50. (Fluorescence polarisation rises when a labelled molecule tumbles more slowly, as on binding a larger partner.)

Chain of PI3K (P42336 whole entry): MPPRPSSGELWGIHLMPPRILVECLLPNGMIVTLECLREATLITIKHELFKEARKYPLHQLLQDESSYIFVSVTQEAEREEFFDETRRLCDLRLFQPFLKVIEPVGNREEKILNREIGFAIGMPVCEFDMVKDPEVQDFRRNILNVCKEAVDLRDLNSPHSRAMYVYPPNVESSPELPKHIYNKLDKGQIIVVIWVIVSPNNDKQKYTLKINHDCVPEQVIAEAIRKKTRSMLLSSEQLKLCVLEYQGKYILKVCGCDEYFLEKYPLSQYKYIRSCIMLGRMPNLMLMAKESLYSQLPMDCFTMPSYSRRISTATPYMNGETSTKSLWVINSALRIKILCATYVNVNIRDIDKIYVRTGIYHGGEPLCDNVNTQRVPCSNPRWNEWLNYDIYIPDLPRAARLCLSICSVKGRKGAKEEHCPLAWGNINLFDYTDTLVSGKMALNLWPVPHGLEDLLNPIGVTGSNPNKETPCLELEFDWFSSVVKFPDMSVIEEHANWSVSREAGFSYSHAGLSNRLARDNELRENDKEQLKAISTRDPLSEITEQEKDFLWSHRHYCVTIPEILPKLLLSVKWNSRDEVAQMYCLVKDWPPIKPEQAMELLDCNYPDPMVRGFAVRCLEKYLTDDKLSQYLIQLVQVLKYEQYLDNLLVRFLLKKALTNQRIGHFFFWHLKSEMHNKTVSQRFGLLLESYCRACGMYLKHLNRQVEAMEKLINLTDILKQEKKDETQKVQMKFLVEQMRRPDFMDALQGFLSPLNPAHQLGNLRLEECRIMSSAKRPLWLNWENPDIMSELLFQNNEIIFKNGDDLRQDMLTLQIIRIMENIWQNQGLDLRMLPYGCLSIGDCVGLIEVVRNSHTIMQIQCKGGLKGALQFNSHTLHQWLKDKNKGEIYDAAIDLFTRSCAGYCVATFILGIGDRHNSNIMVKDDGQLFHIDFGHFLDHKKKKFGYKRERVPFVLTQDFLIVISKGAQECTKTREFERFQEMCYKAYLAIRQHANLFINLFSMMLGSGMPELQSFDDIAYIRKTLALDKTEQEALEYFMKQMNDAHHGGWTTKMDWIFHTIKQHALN
Chain of PI3K (P27986 whole entry partner): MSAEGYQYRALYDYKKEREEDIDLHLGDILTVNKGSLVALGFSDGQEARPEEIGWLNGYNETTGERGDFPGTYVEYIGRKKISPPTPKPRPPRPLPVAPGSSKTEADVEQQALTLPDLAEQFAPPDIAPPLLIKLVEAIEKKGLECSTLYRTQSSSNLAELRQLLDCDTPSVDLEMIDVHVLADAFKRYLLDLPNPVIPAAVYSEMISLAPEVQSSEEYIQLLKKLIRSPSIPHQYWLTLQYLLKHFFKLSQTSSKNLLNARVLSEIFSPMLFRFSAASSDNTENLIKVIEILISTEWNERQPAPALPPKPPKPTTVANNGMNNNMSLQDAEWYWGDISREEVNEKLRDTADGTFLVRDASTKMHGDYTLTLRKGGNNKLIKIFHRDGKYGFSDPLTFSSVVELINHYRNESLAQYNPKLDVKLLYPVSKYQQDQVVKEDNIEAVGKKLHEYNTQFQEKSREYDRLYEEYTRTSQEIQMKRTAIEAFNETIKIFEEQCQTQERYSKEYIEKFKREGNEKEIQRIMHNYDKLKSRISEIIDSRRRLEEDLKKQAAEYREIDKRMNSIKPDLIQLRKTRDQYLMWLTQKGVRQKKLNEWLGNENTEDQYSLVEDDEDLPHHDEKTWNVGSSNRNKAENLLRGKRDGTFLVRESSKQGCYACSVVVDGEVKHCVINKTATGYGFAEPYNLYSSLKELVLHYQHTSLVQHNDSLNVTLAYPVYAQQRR

The term IC50 denotes the concentration that inhibits the measured activity by half. `CNC(=O)Nc1ccc(-c2nc(N3CCOCC3)c3cnn(C4CCN(C(=O)c5ccc[n+]([O-])c5)CC4)c3n2)cc1` [Example 328, 1-methyl-3-[4-(4-morpholin-4-yl-1-{1-[(1-oxidopyridin-3-yl)carbonyl]piperidin-4-yl}-1H-pyrazolo[3,4-d]pyrimidin-6-yl)phenyl]urea]: the IC50 was 198 nM.
As for `CNC(=O)Nc1ccc(-c2nc(N3CCOCC3)c3cnn(C4CCN(C(=O)c5cccnc5)CC4)c3n2)c(F)c1` [Example 461, 1-(3-fluoro-4-{4-morpholin-4-yl-1-[1-(pyridin-3-ylcarbonyl)piperidin-4-yl]-1H-pyrazolo[3,4-d]pyrimidin-6-yl}phenyl)-3-methylurea], the figure is 887 nM; as for `O=C(Nc1ccccc1)Nc1ccc(-c2nc(N3CCOCC3)c3cnn(C4CCN(C(=O)c5cccnc5)CC4)c3n2)cc1` [Example 343, 1-(4-{4-morpholin-4-yl-1-[1-(pyridin-3-ylcarbonyl)piperidin-4-yl]-1H-pyrazolo[3,4-d]pyrimidin-6-yl}phenyl)-3-phenylurea], 14 nM.
For the compound `Nc1ccc(-c2nc(N3CCOCC3)c3cnn(C4CCCCO4)c3n2)cc1` (centres unmarked) [Compound 264, 4-[4-morpholin-4-yl-1-(tetrahydro-2H-pyran-2-yl)-1H-pyrazolo[3,4-d]pyrimidin-6-yl]aniline], the IC50 came out at 119 nM.
As for `CC(=O)Nc1ccc(-c2nc(N3CCOCC3)c3cnn(C4CCCCO4)c3n2)cc1` (centres unmarked) [Compound 925, N-{4-[4-morpholin-4-yl-1-(tetrahydro-2H-pyran-2-yl)-1H-pyrazolo[3,4-d]pyrimidin-6-yl]phenyl}acetamide], the figure is 1650 nM.
In the case of `Nc1ccc(-c2nc(N3CCOCC3)c3cn[nH]c3n2)cc1` [Compound 531, 4-(4-morpholin-4-yl-1H-pyrazolo[3,4-d]pyrimidin-6-yl)aniline] it was 1610 nM; in that of `CNC(=NC#N)Nc1ccc(-c2nc(N3CCOCC3)c3cnn(C4CCN(Cc5cccnc5)CC4)c3n2)cc1` [Compound 651, 2-cyano-1-methyl-3-(4-{4-morpholin-4-yl-1-[1-(pyridin-3-ylmethyl)piperidin-4-yl]-1H-pyrazolo[3,4-d]pyrimidin-6-yl}phenyl)guanidine], 774 nM.
For the compound `COC(=O)Nc1ccc(-c2nc(N3CCOCC3)c3cnn(C4CCN(C(=O)c5ccc(F)cc5F)CC4)c3n2)cc1` [Compound 693, methyl (4-{1-[1-(2,4-difluorobenzoyl)piperidin-4-yl]-4-morpholin-4-yl-1H-pyrazolo[3,4-d]pyrimidin-6-yl}phenyl)carbamate], the IC50 worked out at 800 nM.
As for `NC(=O)Nc1cccc(-c2nc(N3CCOCC3)c3cnn(C4CCN(Cc5ccccc5)CC4)c3n2)c1` [Compound 229, N-{3-[1-(1-benzylpiperidin-4-yl)-4-morpholin-4-yl-1H-pyrazolo[3,4-d]pyrimidin-6-yl]phenyl}urea], the figure is 2170 nM; as for `CNC(=O)Nc1ccc(-c2nc(N3CCOCC3)c3cnn(C4CCN(C(=O)c5cccnc5)CC4)c3n2)cc1` [Example 226, 1-methyl-3-(4-{4-morpholin-4-yl-1-[1-(pyridin-3-ylcarbonyl)piperidin-4-yl]-1H-pyrazolo[3,4-d]pyrimidin-6-yl}phenyl)urea], 548 nM; as for `CNC(=O)Nc1ccc(-c2nc(N3CCOCC3)c3cn[nH]c3n2)cc1` [Example 236, 1-methyl-3-[4-(4-morpholin-4-yl-1H-pyrazolo[3,4-d]pyrimidin-6-yl)phenyl]urea], 105 nM.
In the case of `COC(=O)Nc1cccc(-c2nc(N3CCOCC3)c3cnn(C4CCN(Cc5ccccc5)CC4)c3n2)c1` [Compound 227, methyl {3-[1-(1-benzylpiperidin-4-yl)-4-morpholin-4-yl-1H-pyrazolo[3,4-d]pyrimidin-6-yl]phenyl}carbamate] it was 9020 nM.
In the case of `COC(=O)Nc1ccc(-c2nc(N3CCOCC3)c3cnn(C4CCN(Cc5ccc(F)cc5)CC4)c3n2)cc1` [Compound 959, methyl (4-{1-[1-(4-fluorobenzyl)piperidin-4-yl]-4-morpholin-4-yl-1Hpyrazolo[3,4-d]pyrimidin-6-yl}phenyl)carbamate] it was 750 nM; in that of `CNC(=O)Nc1ccc(-c2nc(N3CCOCC3)c3cnn(C4CCN(C(=O)c5cnccn5)CC4)c3n2)cc1` [Compound 666, 1-methyl-3-(4-{4-morpholin-4-yl-1-[1-(pyrazin-2-ylcarbonyl)piperidin-4-yl]-1H-pyrazolo[3,4-d]pyrimidin-6-yl}phenyl)urea], 198 nM.
Turning to `Oc1cncc(-c2nc(N3CCOCC3)c3cnn(C4CCN(Cc5ccccc5)CC4)c3n2)c1` [Compound 930, 5-[1-(1-benzylpiperidin-4-yl)-4-morpholin-4-yl-1H-pyrazolo[3,4-d]pyrimidin-6-yl]pyridin-3-ol], the IC50 was 36 nM.
As for `FC(F)(F)CN1CCC(n2ncc3c(N4CCOCC4)nc(-c4ccc5[nH]ccc5c4)nc32)CC1` [Compound 715, 6-(1H-indol-5-yl)-4-morpholin-4-yl-1-[1-(2,2,2-trifluoroethyl)piperidin-4-yl]-1H-pyrazolo[3,4-d]pyrimidine], the figure is 2880 nM; as for `CNC(=O)Nc1ccc(-c2nc(N3CCOCC3)c3cnn(C4CCCCO4)c3n2)cc1` (centres unmarked) [Compound 935, 1-methyl-3-{4-[4-morpholin-4-yl-1-(tetrahydro-2H-pyran-2-yl)-1H-pyrazolo[3,4-d]pyrimidin-6-yl]phenyl}urea], 118 nM.
As for `CCCOC(=O)Nc1ccc(-c2nc(N3CCOCC3)c3cnn(C4CCN(Cc5ccccc5)CC4)c3n2)cc1` [Compound 255, propyl {4-[1-(1-benzylpiperidin-4-yl)-4-morpholin-4-yl-1H-pyrazolo[3,4-d]pyrimidin-6-yl]phenyl}carbamate], the figure is 4110 nM.
For `CCNC(=O)Nc1cc(F)c(-c2nc(N3CCOCC3)c3cnn(C4CCN(C(=O)c5cccnc5)CC4)c3n2)cc1F` [Compound 710, 1-(2,5-difluoro-4-{4-morpholin-4-yl-1-[1-(pyridin-3-ylcarbonyl)piperidin-4-yl]-1H-pyrazolo[3,4-d]pyrimidin-6-yl}phenyl)-3-ethylurea], the IC50 came out at 3110 nM.
In the case of `c1cc2cc(-c3nc(N4CCOCC4)c4cnn(C5CCNCC5)c4n3)ccc2[nH]1` [Example 46] it was 1310 nM; in that of `c1cncc(CN2CCC(n3ncc4c(N5CCOCC5)nc(-c5ccc6c(c5)CCN6)nc43)CC2)c1` [Compound 416, 6-(2,3-dihydro-1H-indol-5-yl)-4-morpholin-4-yl-1-[1-(pyridin-3-ylmethyl)piperidin-4-yl]-1H-pyrazolo[3,4-d]pyrimidine], 1490 nM.
As to `c1cc2cc(-c3nc(N4CCOCC4)c4cn[nH]c4n3)ccc2[nH]1` [Compound 929, 6-(1H-indol-5-yl)-4-morpholin-4-yl-1H-pyrazolo[3,4-d]pyrimidine], the half-maximal inhibitory concentration (IC50) was 939 nM.
On to `CCNC(=O)Nc1ccc(-c2nc(N3CCOCC3)c3cnn(C4CCN(C(=O)c5cccnc5)CC4)c3n2)c(F)c1` [Compound 706, 1-ethyl-3-(3-fluoro-4-{4-morpholin-4-yl-1-[1-(pyridin-3-ylcarbonyl)piperidin-4-yl]-1H-pyrazolo[3,4-d]pyrimidin-6-yl}phenyl)urea], for which the IC50 came out at 1620 nM.
In the case of `COC(=O)Nc1ccc(-c2nc(N3CCOCC3)c3cnn(C4CCCCO4)c3n2)cc1` (centres unmarked) [Compound 274, methyl {4-[4-morpholin-4-yl-1-(tetrahydro-2H-pyran-2-yl)-1H-pyrazolo[3,4-d]pyrimidin-6-yl]phenyl}carbamate] it was 2550 nM; in that of `CNCCNC(=O)Nc1ccc(-c2nc(N3CCOCC3)c3cnn(C4CCN(C(=O)c5ccccc5)CC4)c3n2)cc1` [Compound 631, 1-{4-[1-(1-benzoylpiperidin-4-yl)-4-morpholin-4-yl-1H-pyrazolo[3,4-d]pyrimidin-6-yl]phenyl}-3-[2-(methylamino)ethyl]urea], 48 nM; in that of `Nc1cccc(-c2nc(N3CCOCC3)c3cnn(C4CCN(C(=O)c5cccnc5)CC4)c3n2)n1` [Compound 680, 6-{4-morpholin-4-yl-1-[1-(pyridin-3-ylcarbonyl)piperidin-4-yl]-1H-pyrazolo[3,4-d]pyrimidin-6-yl}pyridin-2-amine], 4990 nM.
As for `COCOc1cncc(-c2nc(N3CCOCC3)c3cnn(C4CCN(Cc5ccccc5)CC4)c3n2)c1` [Compound 249, 1-(1-benzylpiperidin-4-yl)-6-[5-(methoxymethoxy)pyridin-3-yl]-4-morpholin-4-yl-1H-pyrazolo[3,4-d]pyrimidine], the figure is 2000 nM; as for `O=C(Nc1cc(F)c(-c2nc(N3CCOCC3)c3cnn(C4CCN(C(=O)c5cccnc5)CC4)c3n2)cc1F)NC1CC1` [Compound 712, 1-cyclopropyl-3-(2,5-difluoro-4-{4-morpholin-4-yl-1-[1-(pyridin-3-ylcarbonyl)piperidin-4-yl]-1H-pyrazolo[3,4-d]pyrimidin-6-yl}phenyl)urea], 3560 nM.
For the compound `CNC(=O)Nc1ccc(-c2nc(N3CCOCC3)c3cnn(C4CCN(Cc5ccccc5)CC4)c3n2)cc1F` [Example 348, 1-{4-[1-(1-benzylpiperidin-4-yl)-4-morpholin-4-yl-1H-pyrazolo[3,4-d]pyrimidin-6-yl]-2-fluorophenyl}-3-methylurea], the half-maximal inhibitory concentration (IC50) was 199 nM.
In the case of `O=C(O)Cc1ccc(-c2nc(N3CCOCC3)c3cnn(C4CCN(Cc5ccccc5)CC4)c3n2)cc1` [Compound 353, {4-[1-(1-benzylpiperidin-4-yl)-4-morpholin-4-yl-1H-pyrazolo[3,4-d]pyrimidin-6-yl]phenyl}acetic acid] it was 1260 nM; in that of `COC(=O)Nc1ccc(-c2nc(N3CCOCC3)c3cnn(C4CCN(C(=O)c5ccccc5)CC4)c3n2)cc1` [Compound 686, methyl {4-[1-(1-benzoylpiperidin-4-yl)-4-morpholin-4-yl-1H-pyrazolo[3,4-d]pyrimidin-6-yl]phenyl}carbamate], 1010 nM.
As for `c1ccc(CN2CCC(n3ncc4c(N5CCOCC5)nc(-c5ccc6ncccc6c5)nc43)CC2)cc1` [Compound 369, 6-[1-(1-benzylpiperidin-4-yl)-4-morpholin-4-yl-1H-pyrazolo[3,4-d]pyrimidin-6-yl]quinoline], the figure is 466 nM.
